Here are results for three compounds from PMC3740200 (Dalton transactions (Cambridge, England : 2003), 2012).

In assay [1] the target is DaCld(W227F) (Dechloromonas aromatica, UniProt Q47CX0, W261F). Description: Equilibrium binding of heme ligands.
In assay [2] the target is WT DaCld. The note with it: cited from earlier work.
Assay [3] deals with W156F DaCld (Dechloromonas aromatica, UniProt Q47CX0, W190F). Description: Equilibrium binding of heme ligands.

SMILES strings stand for the structures. Read-outs that look alike come from different tables or passages of the source.

Sequence of DaCld(W227F) (Q47CX0 32-282 W261F): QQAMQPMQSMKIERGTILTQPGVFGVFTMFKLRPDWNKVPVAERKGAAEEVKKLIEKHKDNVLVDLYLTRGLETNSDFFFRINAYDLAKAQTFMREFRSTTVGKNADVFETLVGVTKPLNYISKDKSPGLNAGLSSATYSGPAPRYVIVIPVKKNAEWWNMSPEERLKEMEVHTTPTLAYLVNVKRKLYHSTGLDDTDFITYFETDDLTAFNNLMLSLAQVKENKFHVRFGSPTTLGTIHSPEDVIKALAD
Sequence of W156F DaCld (Q47CX0 32-282 W190F): as the sequence (Q47CX0 32-282 W261F) above, with W159F, F230W counted along it

As to `F` [F^-, fluoride], the Kd (as a rule, a measure of binding affinity in units of concentration) in assay [1] is 3800 ± 900 µM; in assay [2] (pH 7), 15000 ± 1000 µM.
Regarding `c1c[nH]cn1` [Imidazole], the Kd is 17.5 ± 1.5 µM in assay [1]; 26.6 ± 3.5 µM in assay [3]; 9.6 ± 0.3 µM in assay [2] (pH 7, 100 mM phosphate, 25 °C, ref [16]).
In the case of `[N-]=[N+]=[N-]` [N3^-, azide], the results for the Kd in assay [1] (pH 7), in assay [3] (pH 7) and in assay [2] (pH 7) were 7 ± 0.3 µM, 34.5 ± 3.1 µM and 8.3 ± 0.1 µM, respectively.
